Reference: PMC8022203 (ACS infectious diseases, 2021)

Target: HadA (Mycobacterium tuberculosis, UniProt P9WFK1)
Type: binding

HadA, sequence (P9WFK1 whole entry): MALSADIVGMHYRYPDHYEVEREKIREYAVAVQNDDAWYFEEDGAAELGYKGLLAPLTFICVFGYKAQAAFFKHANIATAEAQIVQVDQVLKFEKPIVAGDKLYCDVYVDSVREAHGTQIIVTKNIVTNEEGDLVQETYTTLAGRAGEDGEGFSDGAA

## CCN(CC)c1ccc2cc(-c3ccc(/C=N/NC(N)=S)s3)c(=O)oc2c1 [Coum-TAC, (E)-((5-(7-((N,N)-diethylamino)-2-oxo-2H-chromen-3-yl)thiophen-2-yl)methylene)hydrazine-1-carbothioamide]
  UV-vis, fluorescence and ESI mass spectrometry of re-purified HadA: EthA promotes the formation of a covalent adduct between Coum-TAC and HadA
